Test results reported in the supplement of paper PMC10290057.
Structures can show the parent of a compound that is named as a salt.

Columns and labels:
HCT116 [1] = experiment: efficacy (fitted maximal change in viability relative to DMSO control); higher = less cytotoxic (negative = loss of viability); details: 48 h
HCT116 [2] = experiment: AC50 cell viability (CellTiter-Glo); higher = less potent; details: 48 h
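Wherever AC50 cell viability (CellTiter-Glo) is given: HCT116 colorectal carcinoma cells screened at five concentrations per compound, luminescent viability scaled between DMSO wells and empty wells on each plate, curves fitted per compound.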
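Wherever efficacy (fitted maximal change in viability relative to DMSO control) is given: Luminescence-based viability readout, five doses per compound, normalized against on-plate DMSO and empty-well controls, followed by dose-response curve fitting for every drug.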

Structure (SMILES) | efficacy (HCT116 [1]) [%] | AC50 cell viability (HCT116 [2]) [µM]
Cc1ccc(NC(=O)c2ccc(CN3CCNCC3)cc2)cc1Nc1nccc(-c2cccnc2)n1 | -93.9 | 18.6
Cc1c(NC(=O)OCC2COCCN2)cn2ncnc(Nc3ccc4c(cnn4Cc4cccc(F)c4)c3)c12 (centres undefined) | -91.3 | 26.3
CNC(=O)c1c(F)cccc1Nc1nc(Nc2cc3c(cc2OC)CCN3C(=O)CN(C)C)nc2[nH]ccc12 | -131 | 5.25
COc1cc(Oc2ccnc3cc(OC)c(OC)cc23)ccc1NC(=O)NC(C)c1nccs1 (centres undefined) | -63.5 | 20.9
C[C@@H](Oc1cc(-n2cnc3ccc(CN4CCN(C)CC4)cc32)sc1C(N)=O)c1ccccc1C(F)(F)F | -57.6 | 0.0468
C[C@H](NC(=O)c1sccc1OCc1ccc(Cl)cc1)c1ccccc1 | -50.9 | 16.6
Cc1ccc(-c2ccc3ncc4c(c3n2)n(C2CCN(C(=O)[C@H](C)O)CC2)c(=O)n4C)cn1 | -86.9 | 0.166
N#Cc1ccc(-c2c(-c3nnc[nH]3)sc(N3CCOCC3)c2C#N)c(F)c1 | -83.5 | 1.86
NC1=C(Cl)C(=CC=N1)OC2=C(F)C=C(NC(=O)\C3=C\N\C=C(C3=O)\C4=CC=C(F)C=C4)C=C2 | -78.4 | 16.6
Nc1ccc(C(=O)Nc2cccc(-c3nc(N4CCOCC4)c4oc5ncccc5c4n3)c2)cn1 | -88.1 | 5.9
O=C(NOCC(O)CO)c1ccc(F)c(F)c1Nc1ccc(I)cc1F (centres undefined) | -68.6 | 0.166
OCCn1cc(-c2ccc3c(c2)CC/C3=N\O)c(-c2ccncc2)n1 | -55.7 | 4.68
Cc1ccc(C(=O)Nc2ccc(CN3CCN(C)CC3)c(C(F)(F)F)c2)cc1C#Cc1cnc2cccnn12 [Ponatinib] |  | 1.48
N[S+](=O)([O-])c1cc2c(cc1Cl)NC(C(Cl)Cl)N[S+]2(=O)[O-] (centres undefined) [Trichlormethiazide] | 6.79 | 
CC1=CC2=C(O1)C(=C3OC(=O)\C=C(C)/C3=C2)C [Trioxsalen] | -19.8 | 
O=C(CCCCCCC(=O)Nc1ccc([C@H]2O[C@@H](CSc3nc(-c4ccccc4)c(-c4ccccc4)o3)C[C@@H](c3ccc(CO)cc3)O2)cc1)NO [Tubacin] | -23.7 | 
CC(C)OC(=O)/C1=C/N(CC(C)(C)C2=C1[NH]C3=CC=CC=C23)C(=O)C4=CC=C(F)C(=C4)F [Turofexorate isopropyl] | -17.9 | 
N#C/C(=C\c1ccc(O)c(O)c1)C(=O)NCc1ccccc1 [Tyrphostin B42] | -71.9 | 
COc1cc2c(NC3CCN(C)CC3)nc(N3CCCN(C)CC3)nc2cc1OCCCN(C)C [UNC-0224] | -57.9 | 
O=C(c1ccc(C(=O)N2CCC(N3CCCC3)CC2)c(Nc2ccccc2)c1)N1CCC(N2CCCC2)CC1 [UNC-1215] | -10.4 | 
CCCC\1=C(/CNC(=O)C2=CC(=CC3=C2C=N[N]3C(C)C)C4=CC=C(N=C4)N5CCN(CC5)C(C)C)C(=O)NC(=C1)\C [UNC-1999] | -25.5 | 
CCN(CC)CCCC[C@H](NC(=O)[C@H](CC(C)C)NC(=O)[C@H](C)NC(=O)[C@H](Cc1ccccc1)NC(=O)c1ccc(C(C)(C)C)cc1)C(=O)N[C@@H](CO)C(=O)OC [UNC-3866] | -18.9 | 
OC[C@H]1O[C@H]([C@H](O)[C@@H]1O)N2\C=C/C(=O)NC2=O [Uridine] | -9.88 | 

Structure (SMILES) | efficacy (HCT116 [1]) [%] | AC50 cell viability (HCT116 [2]) [µM]
C[C@@H]1CC[C@@]2(CC[C@]3(C)\C(=C/C[C@@H]4[C@@]5(C)CC[C@H](O)C(C)(C)[C@@H]5CC[C@@]34C)[C@@H]2[C@H]1C)C(O)=O [Ursolic acid] | 6.32 | 
CC[C@H](NC(=O)[C@H](C[S+](=O)([O-])CC1CC1)N[C@@H](c1ccc(F)cc1)C(F)(F)F)C(=O)C(=O)NC1CC1 [VBY-825] | -25.3 | 
C[S+](=O)([O-])c1ccc(-c2cnc(N)c(C(=O)Nc3ccccc3)n2)cc1 [VE-821] | -26.1 | 
CC(C)(C)C#Cc1cc(N(C(=O)[C@H]2CC[C@H](C)CC2)[C@H]2CC[C@@H](O)CC2)c(C(=O)O)s1 [VX-222] | -59.3 | 
FC1=CC=C(SC/2=N/N3\C=N/C(=O)/C(=C3/C=C2)C4=C(Cl)C=CC=C4Cl)C(=C1)F [VX-745] | -34.7 | 
CCO[C@@H]1OC(=O)C[C@@H]1NC(=O)[C@@H]1CCCN1C(=O)[C@@H](NC(=O)c1ccc(N)c(Cl)c1)C(C)(C)C [VX-765] | 23.5 | 
O=C(O)CNC(=O)c1ncc(-c2cccc(Cl)c2)cc1O [Vadadustat] | -15.6 | 
CC(C)[C@H](N)C(=O)OCCOC[N]1C=NC2=C1\N=C(N)/NC2=O [Valaciclovir] | 8.42 | 
Cc1onc(-c2ccccc2)c1-c1ccc([S+](N)(=O)[O-])cc1 [Valdecoxib] | -36.8 | 
CCCC(CCC)C(=O)[O-] [Valproic acid sodium salt] | 14 | 
CN[C@H](CC(C)C)C(=O)N[C@H]1C(=O)N[C@@H](CC(N)=O)C(=O)N[C@H]2C(=O)N[C@H]3C(=O)N[C@H](C(=O)N[C@H](C(=O)O)c4cc(O)cc(O)c4-c4cc3ccc4O)[C@H](O)c3ccc(c(Cl)c3)Oc3cc2cc(c3O[C@@H]2O[C@H](CO)[C@@H](O)[C@H](O)[C@H]2O[C@H]2C[C@](C)(N)[C@H](O)[C@H](C)O2)Oc2ccc(cc2Cl)[C@H]1O [Vancomycin hydrochloride] | -27 | 
O=C(O)CC/C=C\CC[C@@H]1[C@@H](N2CCCCC2)[C@@H](O)C[C@@H]1OCc1ccc(-c2ccccc2)cc1 [Vapiprost hydrochloride] | -23.2 | 
CCCC1=NC(=C2[N]1NC(=N\C2=O)/C3=CC(=CC=C3OCC)[S+]([O-])(=O)N4CCN(CC)CC4)C [Vardenafil] | -19.1 | 
CCc1c(C(=O)C(N)=O)c2c(OCC(=O)O)cccc2n1Cc1ccccc1 [Varespladib] | -27.8 | 
Clc1ccc(Nc2nnc(Cc3ccncc3)c3ccccc23)cc1 [Vatalanib] | -27.3 | 
CC(=O)O[C@H]1C[C@@H]2CC[C@@H]3[C@H](CC[C@@]4(C)[C@H]3C[C@H]([N+]3(C)CCCCC3)[C@@H]4OC(C)=O)[C@@]2(C)C[C@@H]1N1CCCCC1.[Br-] [Vecuronium bromide] | -10.9 | 
O=C(O)[C@@H](c1ccc(OCc2ccc3ccccc3n2)cc1)C1CCCC1 [Veliflapon] | -10.1 | 
C[C@]1(c2nc3c(C(N)=O)cccc3[nH]2)CCCN1 [Veliparib] | -31.3 | 
CCC[S+](=O)([O-])Nc1ccc(F)c(C(=O)c2c[nH]c3ncc(-c4ccc(Cl)cc4)cc23)c1F [Vemurafenib] | 9.66 | 
CC1(C)CCC(=C(\C1)C2=CC=C(Cl)C=C2)/CN3CCN(CC3)C4=CC(=C(C=C4)C(=O)N[S+]([O-])(=O)C5=CC=C(NCC6CCOCC6)C(=C5)[N+]([O-])=O)OC7=CN=C8[NH]C=CC8=C7 [Venetoclax (ABT-199)] | -73.3 | 
COc1ccc(CCN(C)CCCC(C#N)(c2ccc(OC)c(OC)c2)C(C)C)cc1OC (centres undefined) [Verapamil] |  | 18.6
CCCCOc1nc(N)c2c(n1)N(Cc1cccc(CN3CCCC3)c1)CC(=O)N2 [Vesatolimod] | -47.6 | 
COc1ccc(C(=O)N2CCN(c3ccc4c(c3)CCC(=O)N4)CC2)cc1OC [Vesnarinone] | -21.4 | 

Structure (SMILES) | efficacy (HCT116 [1]) [%] | AC50 cell viability (HCT116 [2]) [µM]
Nc1ncnc2c1ncn2[C@@H]1O[C@H](CO)[C@@H](O)[C@@H]1O [Vidarabine] | -11.4 | 
C[S+](=O)([O-])c1ccc(C(=O)Nc2ccc(Cl)c(-c3ccccn3)c2)c(Cl)c1 [Vismodegib] | -23.8 | 
CCOC(=O)N[C@@H]1CC[C@@H]2[C@@H](C1)C[C@H]1C(=O)O[C@H](C)[C@H]1[C@H]2/C=C/c1ccc(-c2cccc(F)c2)cn1 [Vorapaxar] | -40.6 | 
C[C@@H](c1ncncc1F)[C@](O)(Cn1cncn1)c1ccc(F)cc1F [Voriconazole] | -12.1 | 
O=C(CCCCCCC(=O)Nc1ccccc1)NO [Vorinostat (SAHA)] | -81 | 
CN[C@@H]1CN(C[C@H]1OC)C2=NC3=C(C=C2)C(=O)C(=C\N3C4=NC=CS4)/C(O)=O [Vosaroxin] | -17.8 | 
Cc1c(F)ccc(C(=O)Nc2cc([N+](=O)[O-])ccc2N2CCN(C)CC2)c1Cl [WDR5-C47] | -7.44 | 
COc1cc2ncnc(Nc3cc(Br)c(O)c(Br)c3)c2cc1OC [WHI-P97] | -37.8 | 
C[C@H](NC(=O)/C(C#N)=C/c1cccc(Br)n1)c1ccccc1 [WP-1066] | -83.5 | 
Cc1cc(-c2ccc(CC(=O)Nc3ccc(-c4cccnc4)cc3)cc2)ccn1 [Wnt-C59] | -33.8 | 
O=C(Nc1ccc(-c2ccnc(Nc3ccc(N4CCOCC4)cc3)n2)cc1)C1CCCN1 (centres undefined) [XL-019] | -19.1 | 
Cc1ccc([S+](=O)([O-])Nc2nc3ccccc3nc2Nc2ccc3nsnc3c2)cc1 [XL-147] | -12 | 
CC1=CC(=CC(=C1C\C2=N\CCN2)C)C(C)(C)C [Xylometazoline hydrochloride] | -32.9 | 
N#Cc1ccc(N(Cc2ccc(Br)cc2)n2cnnc2)cc1 [YM-511] | -14.3 | 
COC(=O)[C@@H]1[C@H]2C[C@H]3c4[nH]c5ccccc5c4CCN3C[C@@H]2CC[C@@H]1O [Yohimbine] | -8.81 | 
CC(C(=O)O)c1ccc2c(c1)CC(=O)c1ccccc1S2 (centres undefined) [Zaltoprofen] | 8.02 | 
OC[C@H]1O[C@H]([C@H](O)[C@@H]1O)N2/C=C\C=N/C2=O [Zebularine] | -11.7 | 
CC(c1cc2ccccc2s1)N(O)C(N)=O (centres undefined) [Zileuton] | -26.8 | 
CC1=C(/C=C/C(C)=C/C=C/C(C)=C/C=C/C=C(C)/C=C/C=C(C)/C=C/C2=C(C)CCCC2(C)C)C(C)(C)CCC1 [beta-Carotene] | -21.3 | 
CCCCn1c(=O)n(Cc2ccccc2F)c(=O)c2nc(Cc3ccc(NC(C)=O)cc3)[nH]c21 [cPEPCK Inhibitor] | -8.36 | 
CC/1=C2/N(C(=O)C(=C1)/NC3=CC(=NC=N3)N)C4(CCCCC4)NC2=O [eFT508] | -7.54 | 
